Assay results reported in patent US9248088B2, “Compositions and methods for skin conditioning” (TELOMERASE ACTIVATION SCIENCES, INC., priority 2003, dated 2016).
Read-outs that look alike come from different tables or passages of the source.

How the values were obtained:
[1] = tested on: young neonatal keratinocytes; experiment: scratch assay (cell reconfluence), young neonatal keratinocytes; type: cell-based, human; conditions: FIG. 5, 2 at 0.01 μM; for SCtest (percentage of closure): SC=100-[100×Wn/W0]
Protocol: (§1) As used herein, “as measured in a scratch assay” refers to measurement of cell reconfluence in keratinocytes or fibroblasts according to the following protocol, and expressed as the value of SC shown in the formula below. Cells are plated in flasks ((5×10^5 cells per flask) and cultured for two days in a humidified chamber at 5% CO2, 37° C. A 2 ml plastic pipette is gently dragged thought the culture to “scratch” the cell surface. The ideal scratch is approximately 2-3 mm wide and 50 mm long (along the long axis of the tissue culture flask). The cells are retreated with medium containing either vehicle (control sample) or test compositions at multiple dilutions. A scratch area is identified, the flask marked, and the appearance of the cells documented photographically over 3-4 days continued culturing of the cells. Amount of cell reconfluence, or closure of the scratch, is determined by measuring width of the scratch over time for compound-treated samples relative to vehicle-treated or other control cells. […] Percentage of closure is calculated by the following formula: SC=100−[100×Wn/W0], where Wn is the width of the scratch on day n and W0 is the width of the scratch on day one (i.e. immediately after scratching).

[2] = tested on: telomerase activity in HEKneoP cells (neonatal keratinocytes); experiment: TRAP assay of telomerase activity in neonatal keratinocytes; type: cell-based, human; conditions: for MEC (minimum effective concentration producing telomerase activity twice that of DMSO control): HEKneoP cells, 100% greater than DMSO control; for telomerase activity (result in words): neonatal keratinocytes / normal cells
[3] = tested on: aging neonatal keratinocytes; experiment: scratch assay (cell reconfluence), aging neonatal keratinocytes; type: cell-based, human; conditions: FIG. 7; compared with 50 ng/mL PDGF
Protocol: as §1

[4] = tested on: aging adult keratinocytes; experiment: scratch assay (cell reconfluence), aging adult keratinocytes; type: cell-based, human; conditions: for Approx. scratch width (arbitrary units) Day 1 test: 0.1 μg/ml (about 0.13 μM) 1
Protocol: As used herein, “as measured in a scratch assay” refers to measurement of cell reconfluence in keratinocytes or fibroblasts according to the following protocol, and expressed as the value of SC shown in the formula below. Cells are plated in flasks ((5×10^5 cells per flask) and cultured for two days in a humidified chamber at 5% CO2, 37° C. A 2 ml plastic pipette is gently dragged thought the culture to “scratch” the cell surface. The ideal scratch is approximately 2-3 mm wide and 50 mm long (along the long axis of the tissue culture flask). The cells are retreated with medium containing either vehicle (control sample) or test compositions at multiple dilutions. A scratch area is identified, the flask marked, and the appearance of the cells documented photographically over 3-4 days continued culturing of the cells. Amount of cell reconfluence, or closure of the scratch, is determined by measuring width of the scratch over time for compound-treated samples relative to vehicle-treated or other control cells. […] Percentage of closure is calculated by the following formula: SC=100−[100×Wn/W0], where Wn is the width of the scratch on day n and W0 is the width of the scratch on day one (i.e. immediately after scratching). […] Briefly, a scratch, typically about 2-3 mm in width, is created through a mass of plated cells, and the time needed for the cells to become confluent is observed. […] (GRN163 is a telomerase inhibitor oligonucleotide that targets the template region of the telomerase RNA component. Specifically, GRN163 is a 13-mer N3′→P5′ thiophosphoramidate oligonucleotide, described in detail in PCT Pubn. No. WO 01/18015. GRN137227 is a 13-mer N3′→P5′ thiophosphoramidate control oligonucleotide having a mismatched sequence.)

[5] = type: in vitro ADME; conditions: human
Protocol: J. Franz et al., Abst. J Invest Dermatol 94:525, 1990). […] The receptor solution concentration (representing the inner surface of the skin) was then collected at predetermined intervals over 48 hours, to determine extent and rate of appearance of labeled compound.

Compound: CC(C)(O)[C@@H]1CC[C@](C)([C@H]2[C@@H](O)C[C@@]3(C)[C@@H]4C[C@H](O[C@@H]5O[C@H](CO)[C@@H](O)[C@H](O)[C@H]5O)[C@H]5C(C)(C)[C@@H](O[C@@H]6OC[C@@H](O)[C@H](O)[C@H]6O)CC[C@@]56C[C@@]46CC[C@]23C)O1 [Compound 1, astragaloside IV]
- SCtest (percentage of closure) [1]: 100%
- Approx. scratch width (arbitrary units) Day 1 test ([1]; first 'Day 1 test' column): 18 arbitrary units
- Approx. scratch width (arbitrary units) Day 1 test ([1]; second 'Day 1 test' column): 0 arbitrary units
- MEC (minimum effective concentration producing telomerase activity twice that of DMSO control) [2]: 0.01 µM
- telomerase activity ([2]; at 1.0 μM, maximum of the concentration series): about 360 % of control
- telomerase activity (result in words) [2]: increase in telomerase activity
- promotion of cell reconfluence [3]: comparable to that of PDGF
- SCtest (percentage of closure) ([4]; FIG. 4, 0.1 μg/ml 1, SC=100-[100×Wn/W0]): 100%
- Approx. scratch width (arbitrary units) Day 1 test ([4]; FIG. 4, first 'Day 1 test' column): 17 arbitrary units
- Approx. scratch width (arbitrary units) Day 1 test ([4]; FIG. 4, second 'Day 1 test' column): 0 arbitrary units
- confluence of treated cells ([4]; FIG. 4, 0.1 μg/ml (about 0.13 μM), versus control cells at day 4): confluent at day 4
- cell proliferation ([4]; FIG. 6, 1 alone): promotion of cell proliferation

Compound: CC(C)(O)[C@@H]1CC[C@](C)([C@H]2[C@@H](O)C[C@@]3(C)[C@@H]4C[C@H](O)[C@H]5C(C)(C)[C@@H](O)CC[C@@]56C[C@@]46CC[C@]23C)O1 [Compound 2, cycloastragenol]
- SCtest (percentage of closure) [1]: 90.5%
- Approx. scratch width (arbitrary units) Day 1 test ([1]; first 'Day 1 test' column): 21 arbitrary units
- Approx. scratch width (arbitrary units) Day 1 test ([1]; second 'Day 1 test' column): 2 arbitrary units
- MEC (minimum effective concentration producing telomerase activity twice that of DMSO control) [2]: 0.01 µM
- telomerase activity ([2]; at 0.1 μM, maximum of the concentration series): about 300 % of control
- telomerase activity (result in words) [2]: increase of telomerase activity
- total delivery over 48 hours ([5]; 0.01 wt %): ~66 ng
- total delivery over 48 hours ([5]; 0.25 wt %): ~600 ng

Compound: CC(C)(O)[C@@H]1CC[C@](C)([C@H]2[C@@H](O)C[C@@]3(C)[C@@H]4C[C@H](O)[C@H]5C(C)(C)[C@@H](O)CC[C@]5(C)C4=CC[C@]23C)O1 [Compound 3, astragenol]
- MEC (minimum effective concentration producing telomerase activity twice that of DMSO control) [2]: 0.03 µM

Compound: CC(C)(O)[C@@H]1CC[C@](C)([C@H]2[C@@H](O)C[C@@]3(C)[C@@H]4CC=C5C(=CC[C@H](O)C5(C)C)[C@]4(C)CC[C@]23C)O1 [Compound 5, 20R,24S-epoxy-3β,16β,25-trihydroxy-9β-methyl-19-norlanost-1,5-diene]
- MEC (minimum effective concentration producing telomerase activity twice that of DMSO control) [2]: 0.10 µM

Compound: CC(C)(O)[C@@H]1CC[C@](C)([C@H]2[C@@H](O)C[C@@]3(C)[C@@H]4C[C@H](OC5O[C@H](CO)[C@@H](O)[C@H](O)[C@H]5O)[C@H]5C(C)(C)[C@@H](O)CC[C@@]56C[C@@]46CC[C@]23C)O1 (stereo partly drawn) [Compound 6, cycloastragenol 6-β-D-glucopyranoside]
- MEC (minimum effective concentration producing telomerase activity twice that of DMSO control) [2]: 3.2 µM

Compound: CC(C)(O)[C@@H]1CC[C@](C)([C@H]2[C@@H](O)C[C@@]3(C)[C@@H]4C[C@H](O)[C@H]5C(C)(C)[C@@H](OC6OC[C@@H](O)[C@H](O)[C@H]6O)CC[C@@]56C[C@@]46CC[C@]23C)O1 (stereo partly drawn) [Compound 7, cycloastragenol 3-β-D-xylopyranoside]
- MEC (minimum effective concentration producing telomerase activity twice that of DMSO control) [2]: 3.2 µM

Compound: CC(C)=CCC[C@](C)(O)[C@H]1CC[C@]2(C)[C@@H]1[C@H](O)C[C@@H]1[C@@]3(C)CC[C@H](O)C(C)(C)[C@@H]3[C@@H](O[C@@H]3O[C@H](CO)[C@@H](O)[C@H](O)[C@H]3O)C[C@]12C [Compound 8, ginsenoside RH1]
- MEC (minimum effective concentration producing telomerase activity twice that of DMSO control) [2]: 10 µM

Compound: EGF: EGF (epidermal growth factor), used at 10 nM as comparison in the TRAP assay [reference compound]
- telomerase activity ([2]; cells treated with 10 nM EGF): about 200%

Compound: astragaloside IV 16-one [Compound 4]
- MEC (minimum effective concentration producing telomerase activity twice that of DMSO control) [2]: 0.03 µM
